Laboratory results taken from US9822130B2, “Triazolo-pyrazinyl derivatives useful as soluble guanylate cyclase activators” (Merck Sharp & Dohme Corp., priority 2014, dated 2017).

What follows are compounds tested against T1, sGC α1/β1 heterodimer stably expressed in CHO-K1 cell line (CHO-K1/sGC) (Homo sapiens, UniProt Q02108+Q02153) (assay: Cell-based sGC Functional Assay (CASA Assay), cGMP generation). Conditions: CHO-K1/sGC cells, 1 hr at 37° C., cGMP by HTRF, 4P fit; presence or absence of 1 μM DETA-NO not given; read-out: IP (nM) (inflection point).
T1 construct: expressed in transfected cells
T1 sequence (Q02108 1-690): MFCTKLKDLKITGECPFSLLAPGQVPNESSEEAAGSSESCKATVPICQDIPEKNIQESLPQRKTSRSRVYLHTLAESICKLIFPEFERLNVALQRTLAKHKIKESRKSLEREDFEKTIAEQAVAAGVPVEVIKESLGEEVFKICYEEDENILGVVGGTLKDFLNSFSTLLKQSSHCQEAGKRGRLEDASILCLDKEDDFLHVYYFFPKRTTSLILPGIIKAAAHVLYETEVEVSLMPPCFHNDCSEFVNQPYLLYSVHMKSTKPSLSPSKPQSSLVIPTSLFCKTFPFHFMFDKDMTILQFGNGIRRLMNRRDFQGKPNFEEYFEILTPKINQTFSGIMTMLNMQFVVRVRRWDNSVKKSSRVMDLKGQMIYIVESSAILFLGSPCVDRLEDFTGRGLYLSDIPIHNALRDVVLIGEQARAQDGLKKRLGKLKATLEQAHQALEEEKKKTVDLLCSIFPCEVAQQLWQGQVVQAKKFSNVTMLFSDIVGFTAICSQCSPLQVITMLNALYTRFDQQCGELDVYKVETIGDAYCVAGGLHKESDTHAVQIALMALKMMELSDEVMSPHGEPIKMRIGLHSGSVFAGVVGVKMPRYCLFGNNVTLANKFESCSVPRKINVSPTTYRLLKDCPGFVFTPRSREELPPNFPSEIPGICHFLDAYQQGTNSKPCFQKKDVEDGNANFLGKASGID
T1 sequence (Q02153 1-619): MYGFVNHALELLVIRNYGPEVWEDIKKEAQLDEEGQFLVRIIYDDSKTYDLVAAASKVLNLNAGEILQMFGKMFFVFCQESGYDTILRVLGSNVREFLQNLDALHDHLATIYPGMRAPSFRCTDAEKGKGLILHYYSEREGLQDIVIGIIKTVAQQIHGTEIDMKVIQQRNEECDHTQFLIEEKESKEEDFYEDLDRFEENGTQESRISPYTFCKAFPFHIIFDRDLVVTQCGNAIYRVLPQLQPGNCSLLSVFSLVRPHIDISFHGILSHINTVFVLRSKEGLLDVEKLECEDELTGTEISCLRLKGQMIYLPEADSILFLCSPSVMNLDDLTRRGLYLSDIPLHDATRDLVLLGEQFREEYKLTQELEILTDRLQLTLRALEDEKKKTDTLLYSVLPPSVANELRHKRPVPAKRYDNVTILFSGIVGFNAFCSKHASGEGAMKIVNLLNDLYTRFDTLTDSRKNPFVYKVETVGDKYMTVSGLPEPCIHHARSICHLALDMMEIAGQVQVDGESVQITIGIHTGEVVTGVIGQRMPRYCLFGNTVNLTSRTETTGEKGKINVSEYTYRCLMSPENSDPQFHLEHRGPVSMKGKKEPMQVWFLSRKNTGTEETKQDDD
Summary of the method: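 CHO-K1 cells stably expressing human sGC α1/β1 (4×10^5/mL, 0.5 mM IBMX) were treated with compounds (2.5% DMSO final) ± 1 μM DETA-NO for 1 hr at 37° C. Intracellular cGMP measured by HTRF. Activity expressed as % of Compound A maximal cGMP; IP and maximum fold induction from 4P fit.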

| Structure (SMILES) | EC50 |
| --- | --- |
| Nc1nc(-c2cn3ncnc3c(CCC(F)(F)C(F)(F)F)n2)nc2c1C(c1cn(C3CC3)nn1)(C1CC1)C(=O)N2 (centres unmarked) [Example 96B, 4-amino-5-cyclopropyl-5-(1-cyclopropyl-1H-1,2,3-triazol-4-yl)-2-(8-(3,3,4,4,4-pentafluorobutyl)-[1,2,4]triazolo[1,5-a]pyrazin-6-yl)-5H-pyrrolo[2,3-d]pyrimidin-6(7H)-one] | 134 nM |
| CC1(c2nnc(C3CC3)o2)C(=O)Nc2nc(-c3cn4ncnc4c(CCCC(F)(F)F)n3)nc(N)c21 (centres unmarked) [Example 99A, 4-amino-5-(5-cyclopropyl-1,3,4-oxadiazol-2-yl)-5-methyl-2-(8-(4,4,4-trifluorobutyl)-[1,2,4]triazolo[1,5-a]pyrazin-6-yl)-5H-pyrrolo[2,3-d]pyrimidin-6(7H)-one] | 47.5 nM |
| CC1(c2nnc(C(F)F)o2)C(=O)Nc2nc(-c3cn4ncnc4c(CCCC(F)(F)F)n3)nc(N)c21 (centres unmarked) [Example 100A, 4-amino-5-(5-(difluoromethyl)-1,3,4-oxadiazol-2-yl)-5-methyl-2-(8-(4,4,4-trifluorobutyl)-[1,2,4]triazolo[1,5-a]pyrazin-6-yl)-5H-pyrrolo[2,3-d]pyrimidin-6(7H)-one] | 127 nM |
| CC1(c2nnc(C(F)(F)F)o2)C(=O)Nc2nc(-c3cn4ncnc4c(CCCC(F)(F)F)n3)nc(N)c21 (centres unmarked) [Example 101A, 4-amino-5-methyl-2-(8-(4,4,4-trifluorobutyl)-[1,2,4]triazolo[1,5-a]pyrazin-6-yl)-5-(5-(trifluoromethyl)-1,3,4-oxadiazol-2-yl)-5H-pyrrolo[2,3-d]pyrimidin-6(7H)-one] | 121 nM |
| Cc1nc2c(CCC(F)(F)C(F)(F)F)nc(-c3nc(N)c4c(n3)NC(=O)C4(C)c3nnc(C4CC4)o3)cn2n1 (centres unmarked) [Example 103A, 4-amino-5-(5-cyclopropyl-1,3,4-oxadiazol-2-yl)-5-methyl-2-(2-methyl-8-(3,3,4,4,4-pentafluorobutyl)-[1,2,4]triazolo[1,5-a]pyrazin-6-yl)-5H-pyrrolo[2,3-d]pyrimidin-6(7H)-one] | 219 nM |
| CCCCc1nc(-c2nc(N)c3c(n2)NC(=O)C3(c2nnc(C(F)(F)F)o2)C2CC2)cn2ncnc12 (centres unmarked) [Example 105A, 4-amino-2-(8-butyl-[1,2,4]triazolo[1,5-a]pyrazin-6-yl)-5-cyclopropyl-5-(5-(trifluoromethyl)-1,3,4-oxadiazol-2-yl)-5H-pyrrolo[2,3-d]pyrimidin-6(7H)-one] | 26.7 nM |
| Nc1nc(-c2cn3ncnc3c(CCCC(F)(F)F)n2)nc2c1C(c1nnc(C3(F)CC3)o1)(C1CC1)C(=O)N2 (centres unmarked) [Example 108A, 4-amino-5-cyclopropyl-5-(5-(1-fluorocyclopropyl)-1,3,4-oxadiazol-2-yl)-2-(8-(4,4,4-trifluorobutyl)-[1,2,4]triazolo[1,5-a]pyrazin-6-yl)-5H-pyrrolo[2,3-d] pyrimidin-6(7H)-one] | 14.7 nM |
| CC1(c2ccc(O)cn2)C(=O)Nc2nc(-c3cn4ncnc4c(CCC(F)(F)C(F)(F)F)n3)nc(N)c21 (centres unmarked) [Example 110A, 4-Amino-5-(5-hydroxypyridin-2-yl)-5-methyl-2-(8-(3,3,4,4,4-pentafluorobutyl)-[1,2,4]triazolo [1,5-a]pyrazin-6-yl)-5,7-dihydro-6H-pyrrolo [2,3-d]pyrimidin-6-one] | 139 nM |
| Nc1nc(-c2cn3ncnc3c(CCCC(F)(F)F)n2)nc2c1C(c1ccc(O)cn1)(C1CC1)C(=O)N2 (centres unmarked) [Example 112A, 4-amino-5-cyclopropyl-5-(5-hydroxypyridin-2-yl)-2-(8-(4,4,4-trifluorobutyl)-[1,2,4]triazolo[1,5-a]pyrazin-6-yl)-5H-pyrrolo[2,3-d]pyrimidin-6(7H)-one] | 212 nM |

The remaining lines, values ahead:

| EC50 | Structure (SMILES) |
| --- | --- |
| 439 nM | CCCc1nc(-c2nc(N)c3c(n2)NC(=O)C3(C)c2ccc(Cl)cc2)cn2nc(C)nc12 (centres unmarked) [Example 93A, 4-amino-5-(4-chlorophenyl)-5-methyl-2-(2-methyl-8-propyl-[1,2,4]triazolo[1,5-a]pyrazin-6-yl)-5H-pyrrolo[2,3-d]pyrimidin-6(7H)-one] |
| 79.4 nM | CC1(c2ccc(Cl)cc2)C(=O)Nc2nc(-c3cn4ncnc4cn3)nc(N)c21 (centres unmarked) [Example 94A, 2-([1,2,4]triazolo[1,5-a]pyrazin-6-yl)-4-amino-5-(4-chlorophenyl)-5-methyl-5H-pyrrolo[2,3-d]pyrimidin-6(7H)-one] |
| 257 nM | CC1(c2cn(C3CC3)nn2)C(=O)Nc2nc(-c3cn4ncnc4c(CCC(F)(F)C(F)(F)F)n3)nc(N)c21 (centres unmarked) [Example 95B, 4-Amino-5-(1-cyclopropyl-1H-1,2,3-triazol-4-yl)-5-methyl-2-(8-(3,3,4,4,4-pentafluorobutyl)-[1,2,4]triazolo[1,5-a]pyrazin-6-yl)-5H-pyrrolo[2,3-d]pyrimidin-6(7H)-one] |
| 86.1 nM | CC1(c2nnc(C3CC3)o2)C(=O)Nc2nc(-c3cn4ncnc4c(CCC(F)(F)C(F)(F)F)n3)nc(N)c21 (centres unmarked) [Example 98B, 4-amino-5-(5-cyclopropyl-1,3,4-oxadiazol-2-yl)-5-methyl-2-(8-(3,3,4,4,4-pentafluorobutyl)-[1,2,4]triazolo[1,5-a]pyrazin-6-yl)-5H-pyrrolo[2,3-d]pyrimidin-6(7H)-one] |
| 29.1 nM | CCCCc1nc(-c2nc(N)c3c(n2)NC(=O)C3(C)c2nnc(C(F)(F)F)o2)cn2ncnc12 (centres unmarked) [Example 102A, 4-amino-2-(8-butyl-[1,2,4]triazolo[1,5-a]pyrazin-6-yl)-5-methyl-5-(5-(trifluoromethyl)-1,3,4-oxadiazol-2-yl)-5H-pyrrolo[2,3-d]pyrimidin-6(7H)-one] |
| 258 nM | Nc1nc(-c2cn3ncnc3c(CCCC(F)(F)F)n2)nc2c1C(c1nnc(C3CC3)o1)(C1CC1)C(=O)N2 (centres unmarked) [Example 104A, 4-amino-5-cyclopropyl-5-(5-cyclopropyl-1,3,4-oxadiazol-2-yl)-2-(8-(4,4,4-trifluorobutyl)-[1,2,4]triazolo[1,5-a]pyrazin-6-yl)-5H-pyrrolo[2,3-d] pyrimidin-6(7H)-one] |
| 15.5 nM | Nc1nc(-c2cn3ncnc3c(CCCC(F)(F)F)n2)nc2c1C(c1nnc(C(F)(F)F)o1)(C1CC1)C(=O)N2 (centres unmarked) [Example 106A, 4-amino-5-cyclopropyl-2-(8-(4,4,4-trifluorobutyl)-[1,2,4]triazolo[1,5-a]pyrazin-6-yl)-5-(5-(trifluoromethyl)-1,3,4-oxadiazol-2-yl)-5H-pyrrolo[2,3-d]pyrimidin-6(7H)-one] |
| 74.7 nM | Nc1nc(-c2cn3ncnc3c(CCC(F)(F)C(F)(F)F)n2)nc2c1C(c1nnc(C3CC3)o1)(C1CC1)C(=O)N2 (centres unmarked) [Example 107A, 4-amino-5-cyclopropyl-5-(5-cyclopropyl-1,3,4-oxadiazol-2-yl)-2-(8-(3,3,4,4,4-pentafluorobutyl)-[1,2,4]triazolo[1,5-a]pyrazin-6-yl)-5H-pyrrolo[2,3-d]pyrimidin-6(7H)-one] |
| 7.3 nM | CC1(c2nnc(C3(F)CC3)o2)C(=O)Nc2nc(-c3cn4ncnc4c(CCCC(F)(F)F)n3)nc(N)c21 (centres unmarked) [Example 109A, 4-amino-5-(5-(1-fluorocyclopropyl)-1,3,4-oxadiazol-2-yl)-5-methyl-2-(8-(4,4,4-trifluorobutyl)-[1,2,4]triazolo[1,5a]pyrazin-6-yl)-5H-pyrrolo[2,3-d] pyrimidin-6(7H)-one] |
| 370 nM | CC1(c2ccc(O)cn2)C(=O)Nc2nc(-c3cn4ncnc4c(CCCC(F)(F)F)n3)nc(N)c21 (centres unmarked) [Example 111A, 4-amino-5-(5-hydroxypyridin-2-yl)-5-methyl-2-(8-(4,4,4-trifluorobutyl)-[1,2,4]triazolo[1,5-a]pyrazin-6-yl)-5H-pyrrolo[2,3-d]pyrimidin-6(7H)-one] |

Same assay, conditions: CHO-K1/sGC cells, 1 hr at 37° C., cGMP by HTRF; presence or absence of 1 μM DETA-NO not given; read-out: % Act. (percent activation relative to maximum cGMP production of Compound A = 100%)

| Emax | Structure (SMILES) |
| --- | --- |
| 70% | CC1(c2ccc(O)cn2)C(=O)Nc2nc(-c3cn4ncnc4c(CCC(F)(F)C(F)(F)F)n3)nc(N)c21 (centres unmarked) [Example 110A, 4-Amino-5-(5-hydroxypyridin-2-yl)-5-methyl-2-(8-(3,3,4,4,4-pentafluorobutyl)-[1,2,4]triazolo [1,5-a]pyrazin-6-yl)-5,7-dihydro-6H-pyrrolo [2,3-d]pyrimidin-6-one] |
